The results in this text go back to patent publication US11084826B2, “RSV antiviral pyrazolo- and triazolo-pyrimidine compounds” (Janssen Sciences Ireland Unlimited Company, priority 2015, dated 2021).

Bounds are passed on as bounds.

Broadly, the melting point is the temperature, or range, at which the solid turns liquid. Usually CC50 stands for the concentration that lowers cell viability or growth by half.

One series concerns rgRSV224 virus. The series is described as follows: Antiviral activity: inhibition of rgRSV224 (GFP-expressing RSV) replication in HeLa cells, GFP expression read-out. To be noted: human respiratory syncytial virus, HeLa, read-out: RSV HELA pEC50, rgRSV224 virus (MOI=1) in HeLa cells, GFP read-out (converted). It is filed as cell-based, respiratory syncytial virus (RSV). The protocol:
(§1) Black 384-well clear-bottom microtiter plates (Corning, Amsterdam, The Netherlands) were filled via acoustic drop ejection using the echo liquid handler (Labcyte, Sunnyvale, Calif.). 200 nL of compound stock solutions (100% DMSO) were transferred to the assay plates. 9 serial 4-fold dilutions of compound were made, creating per quadrant the same compound concentration. The assay was initiated by adding 10 μL of culture medium to each well (RPMI medium without phenol red, 10% FBS-heat inactivated, 0.04% gentamycin (50 mg/mL). All addition steps are done by using a multidrop dispenser (Thermo Scientific, Erembodegem, Belgium). Next, rgRSV224 virus (MOI=1) diluted in culture medium was added to the plates. rgRSV224 virus is an engineered virus that includes an additional GFP gene (Hallak LK, Spillmann D, Collins PL, Peeples Me. Glycosaminoglycan sulfation requirements for respiratory syncytial virus infection; Journal of virology (2000), 74(22), 10508-13) and was in-licensed from the NIH (Bethesda, Md., USA). Finally, 20 μL of a HeLa cell suspension (3,000 cells/well) were plated. Medium, virus- and mock-infected controls were included in each test. The wells contain 0.05% DMSO per volume. Cells were incubated at 37° C. in a 5% CO2 atmosphere. Three days post-virus exposure, viral replication was quantified by measuring GFP expression in the cells by an in house developed MSM laser microscope (Tibotec, Beerse, Belgium). The EC50 was defined as the 50% inhibitory concentration for GFP expression. In parallel, compounds were incubated for three days in a set of white 384-well microtiter plates (Corning) and the cytotoxicity of compounds in HeLa cells was determined by measuring the ATP content of the cells using the ATPlite kit (Perkin Elmer, Zaventem, Belgium) according to the manufacturer's instructions. The CC50 was defined as the 50% concentration for cytotoxicity.

Series [1] can be described thus: Cytotoxicity in HeLa cells, ATP content measured with the ATPlite kit. To be noted: human, TOX HELA pCC50. The format is cell-based. On the procedure: as §1
For orientation: Cellular ATP, detected with luciferase, serves as a proxy for viable cell number.

In turn, `CCc1cc(C(=O)N2CCCCC[C@H]2C)nc2cc(-c3ccc(-n4ccc(C(=O)O)n4)cc3F)nn12` [Compound W3] yielded a melting point of 207.63 °C. For the same compound, the EC50 in the series with rgRSV224 virus was 107 nM. Also, the CC50 at 3 days in series [1] was 60300 nM.
In the same order, the values of `CCc1cc(C(=O)N2CCn3cccc3C2C)nc2cc(-c3ccc(/C=C/C(=O)O)cc3F)nn12` (stereo not drawn) [Compound M43] are 255 to 260 °C, 47.9 nM and more than 25100 nM.
`CCc1cc(C(=O)N2CCCCC2C)nc2cc(-c3ccc(NC(=O)C4CC4)cc3)nn12` (stereo not drawn) [Compound E15]: the melting point fell in the range of 260 to 265 °C. In the series with rgRSV224 virus, the EC50 was 832 nM. The CC50 at 3 days in series [1] was more than 96200 nM.
Take `CCc1cc(C(=O)N2CCCCC2C)nc2cc(-c3ccc(-c4ccncc4)cc3)nn12` (stereo not drawn) [Compound F1]: the melting point was 150 to 151 °C. Moreover, the EC50 in the series with rgRSV224 virus was 871 nM. Moreover, the midpoint of cytotoxicity in series [1], the CC50 at 3 days, lay at 38000 nM.
Consider `CC1c2ccsc2CCN1C(=O)c1cc(C2(C)CC2)n2nc(-c3ccc(-n4cc(C(=O)O)cn4)cc3F)cc2n1` (racemic) [Compound W39], for which the melting point came to 265.13 °C. Besides, in the series on rgRSV224 virus, the EC50 was 28.2 nM. For the same compound, the CC50 at 3 days in series [1] was 55000 nM.
Taken in the same sequence, the figures for `CC1CCCCCN1C(=O)c1cc(N2CCCC2)n2nc(-c3ccc(NC(=O)NCC4CCCO4)cc3)cc2n1` (stereo not drawn) [Compound B10] were 228 to 230 °C, 316 nM and more than 100000 nM.
In the same order, the values of `CCc1cc(C(=O)N2CCCCCCC2C)nc2cc(-c3ccc(NC(=O)NCC4CCCO4)cc3F)nn12` (stereo not drawn) [Compound B3] are 195 to 200 °C, 79.4 nM and more than 25100 nM.
Take `CCc1cc(C(=O)N2CCCCC[C@H]2C)nc2cc(-c3ccc(NC(=O)C4CC4)cc3F)nn12` [Compound E10]: the melting point was 225 to 230 °C. In the series on rgRSV224 virus, the EC50 was 91.2 nM. This compound also registered a CC50 at 3 days in series [1] of more than 25100 nM.
`CCc1cc(C(=O)N2CCn3cccc3C2C)nc2cc(-c3ccc(C(=O)O)cc3F)nn12` (stereo not drawn) [Compound K9] returned a melting point of 155 to 160 °C. The EC50 with rgRSV224 virus is 525 nM. In addition, the CC50 at 3 days in series [1] is more than 25100 nM.
As for `CCc1cc(C(=O)N2CCCCCC2C)nc2cc(-c3ccc(-c4cncnc4)cc3)nn12` (stereo not drawn) [Compound F3], the melting point came out at 185 °C. The EC50 with rgRSV224 virus was 832 nM. The same compound came in with a CC50 at 3 days in series [1] of more than 100000 nM.
`CC(C)Cc1cc(C(=O)N2CCCCC[C@H]2C)nc2cc(-c3ccc(-c4ccc(C(=O)O)cn4)cc3F)nn12` [Compound F41] registered a melting point of 197.2 °C. Also, the EC50 in the series on rgRSV224 virus is 36.3 nM. Besides, the CC50 at 3 days in series [1] was 22400 nM.
As to `CCc1cc(C(=O)N2CCn3cccc3C2C)nc2cc(-c3ccc(/C=C/C(=O)O)cc3F)nn12` (single isomer, unassigned) [Compound M44], the melting point worked out at 127.94 °C. Also, the EC50 with rgRSV224 virus is 18.2 nM. This compound also had a cytotoxic concentration (CC50) at 3 days in series [1] of more than 25100 nM.
In turn, `CCc1cc(C(=O)N2CCCCCC2C)nc2cc(-c3ccc(NC(=O)C4CC4)cc3)nn12` (stereo not drawn) [Compound E14] returned a melting point of 265 to 270 °C. The EC50 in the series with rgRSV224 virus was 309 nM. Moreover, the CC50 at 3 days in series [1] was more than 50100 nM.
`C[C@@H]1CCCCCN1C(=O)c1cc(C2CC2)n2nc(-c3ccc(C4C[C@H]4C(=O)O)cc3F)cc2n1` (single isomer, unassigned) [Compound O7] came in with a melting point of 245.75 °C. Also, in the series on rgRSV224 virus, the EC50 is 39.8 nM. This compound also showed a cytotoxic concentration (CC50) at 3 days in series [1] of 45700 nM.
Consider `CC(C)=Cc1cc(C(=O)N2CCCCC[C@H]2C)nc2cc(-c3ccc(N4CC[C@H](C(=O)O)C4)cc3F)nn12` [Compound W15], for which the melting point was determined as 189.89 °C. For the same compound, the EC50 in the series with rgRSV224 virus is 51.3 nM. The compound further showed a CC50 at 3 days in series [1] of 57500 nM.
Consider `CCc1cc(C(=O)N2CCCCC[C@H]2C)nc2cc(-c3ccc(N(C)[C@H]4C[C@@H](C(=O)O)C4)cc3F)nn12` (racemic) [Compound W23], for which the melting point came out at 182.69 °C. In addition, in the series on rgRSV224 virus, the EC50 is 75.9 nM. In series [1], this compound gave a CC50 at 3 days of 79400 nM.
